Reference: ChEMBL document CHEMBL4765344, “Expanding the anticancer potential of 1,2,3-triazoles via simultaneously targeting Cyclooxygenase-2, 15-lipoxygenase and tumor-associated carbonic anhydrases” (Eur J Med Chem, 2020)
Activity calls are given as the source filed them. No cut-off for these calls is given here.

Tests used:
[1] = Inhibition of soya bean 15-LOX; set-up: species or system Glycine max
[2] = target: T1, Prostaglandin G/H synthase 1 (Ovis aries, UniProt P05979); assay: Inhibition of ovine COX1 by colorimetric analysis
T1 sequence (P05979 whole entry): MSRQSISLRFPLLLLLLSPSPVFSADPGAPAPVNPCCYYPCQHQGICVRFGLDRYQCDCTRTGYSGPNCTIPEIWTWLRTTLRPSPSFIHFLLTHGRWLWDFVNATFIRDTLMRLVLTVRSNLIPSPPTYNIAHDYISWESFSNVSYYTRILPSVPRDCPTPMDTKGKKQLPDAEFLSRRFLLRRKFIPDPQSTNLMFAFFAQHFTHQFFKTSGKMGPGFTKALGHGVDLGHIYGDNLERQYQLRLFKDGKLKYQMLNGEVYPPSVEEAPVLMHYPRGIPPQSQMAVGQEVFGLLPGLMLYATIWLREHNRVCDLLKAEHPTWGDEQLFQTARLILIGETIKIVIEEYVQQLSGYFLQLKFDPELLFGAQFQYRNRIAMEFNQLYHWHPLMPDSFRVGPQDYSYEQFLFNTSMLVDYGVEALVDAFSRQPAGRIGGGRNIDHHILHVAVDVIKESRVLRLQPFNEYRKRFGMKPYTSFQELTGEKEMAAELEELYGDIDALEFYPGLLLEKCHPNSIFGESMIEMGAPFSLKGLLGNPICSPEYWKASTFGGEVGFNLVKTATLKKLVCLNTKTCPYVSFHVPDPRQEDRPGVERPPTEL

Carbonic anhydrase 12 = Carbonic anhydrase 12 (Homo sapiens, UniProt O43570); assay: Inhibition of human CA12 by stopped-flow carbon dioxide hydration assay
Chain of Carbonic anhydrase 12 (O43570 whole entry): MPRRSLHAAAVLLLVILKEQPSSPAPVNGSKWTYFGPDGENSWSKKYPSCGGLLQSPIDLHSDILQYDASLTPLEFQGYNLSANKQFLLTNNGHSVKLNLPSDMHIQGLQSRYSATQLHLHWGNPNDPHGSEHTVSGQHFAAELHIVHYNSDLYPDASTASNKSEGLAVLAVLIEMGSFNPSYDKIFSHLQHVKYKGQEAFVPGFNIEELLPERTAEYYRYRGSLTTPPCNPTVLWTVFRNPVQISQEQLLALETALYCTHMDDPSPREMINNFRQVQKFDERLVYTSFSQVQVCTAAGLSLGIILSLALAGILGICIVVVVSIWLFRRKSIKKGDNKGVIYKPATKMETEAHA

Carbonic anhydrase 1 = Carbonic anhydrase 1 (Homo sapiens, UniProt P00915); assay: Inhibition of human CA1 by stopped-flow carbon dioxide hydration assay
Chain of Carbonic anhydrase 1 (P00915 whole entry): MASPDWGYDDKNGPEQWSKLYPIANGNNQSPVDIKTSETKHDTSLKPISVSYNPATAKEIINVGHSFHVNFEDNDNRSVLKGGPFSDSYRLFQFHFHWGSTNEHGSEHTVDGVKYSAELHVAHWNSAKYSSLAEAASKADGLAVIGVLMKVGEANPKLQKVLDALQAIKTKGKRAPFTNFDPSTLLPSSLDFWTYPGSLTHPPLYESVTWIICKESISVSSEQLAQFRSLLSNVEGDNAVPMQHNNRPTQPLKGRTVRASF

Carbonic anhydrase 2 = Carbonic anhydrase 2 (Homo sapiens, UniProt P00918); assay: Inhibition of human CA2 by stopped-flow carbon dioxide hydration assay
WI-38 = assay: Cytotoxicity against human WI-38 cells assessed as reduction in cell viability after 72 hrs by SRB assay; assay type: cell-based; details: WI-38, 72 h
MCF7 = assay: Antiproliferative activity against human MCF-7 cells assessed as inhibition of cell growth at 100 microM measured after 72 hrs by SRB assay; assay type: functional
HepG2 = assay: Antiproliferative activity against human HepG2 cells assessed as inhibition of cell growth at 100 microM measured after 72 hrs by SRB assay; assay type: functional
A549 = assay: Antiproliferative activity against human A549 cells assessed as inhibition of cell growth at 100 microM measured after 72 hrs by SRB assay; assay type: functional
Carbonic anhydrase 9 = Carbonic anhydrase 9 (Homo sapiens, UniProt Q16790); assay: Inhibition of human CA9 by stopped-flow carbon dioxide hydration assay

SMILES | IC50 [1] [µM] | IC50 [2] [µM] | Ki (Carbonic anhydrase 12) [µM] | Ki (Carbonic anhydrase 1) [µM] | Ki (Carbonic anhydrase 2) [µM] | IC50 (WI-38) [µM] | inhibition at 100 µM (MCF7) [%] | inhibition at 100 µM (HepG2) [%] | inhibition (A549) | Ki (Carbonic anhydrase 9) [µM] | inhibition at 100 µM (A549) [%] | inhibition (HepG2)
CC(=O)c1nnn(-c2ccc(C(=O)O)cc2)c1C | 5.14 | 6.4 | – | – | – | – | – | – | – | – | – | –
C/C(=N\NC(N)=O)c1nnn(-c2ccc(F)cc2)c1C | 4.72 | 8.4 | – | – | – | – | – | – | – | – | – | –
CC(=O)c1nnn(-c2ccc(S(N)(=O)=O)cc2)c1C | 3.65 | 7.6 | 0.0826 | 0.073 | 0.0079 | 391 | 17.7 | 3.61 | inactive | 9.12 | – | –
C/C(=N\NC(N)=O)c1nnn(-c2ccc(C(=O)O)cc2)c1C | 4.51 | 6.9 | – | – | – | – | – | – | – | – | – | –
C/C(=N\NC(N)=S)c1nnn(-c2ccc(F)cc2)c1C | 2.42 | 9.6 | > 100 | > 100 | > 100 | 406 | 6.52 | 19.8 | inactive | > 100 | – | –
C/C(=N\Nc1nc(-c2ccc(Cl)cc2)cs1)c1nnn(-c2ccc(F)cc2)c1C | 1.83 | 11.9 | – | – | – | 414 | 33.5 | 20.7 | – | – | 11.9 | –
Cc1c(-c2nn(-c3ccccc3)cc2/C=N/O)nnn1-c1ccc(S(N)(=O)=O)cc1 | 1.91 | 13.9 | > 100 | 18.3 | 7.71 | 450 | 43.5 | 12.5 | inactive | > 100 | – | –
C/C(=N\NC(N)=O)c1nnn(-c2ccc(Cl)cc2)c1C | 6.84 | 5.6 | – | – | – | – | – | – | – | – | – | –
C/C(=N\NC(N)=S)c1nnn(-c2ccc(Cl)cc2)c1C | 5.33 | 7.9 | – | – | – | – | – | – | – | – | – | –
C/C(=N\NC(N)=O)c1nnn(-c2ccc(S(N)(=O)=O)cc2)c1C | 4.74 | 5.9 | 0.0198 | 0.213 | 0.0164 | 365 | 5.8 | – | – | 4.22 | 18.2 | inactive
CC(=O)c1nnn(-c2ccc(S(=O)(=O)Nc3nccs3)cc2)c1C | 4.72 | 5.8 | > 100 | 51 | – | – | – | – | – | > 100 | – | –
C/C(=N\NC(N)=S)c1nnn(-c2ccc(S(N)(=O)=O)cc2)c1C | 1.51 | 13 | 0.0153 | 0.0835 | – | 378 | 36.1 | – | – | 7.27 | 3.88 | inactive
CC(=O)c1nnn(-c2ccc(F)cc2)c1C | 4.75 | 7.3 | – | – | – | – | – | – | – | – | – | –
C/C(=N\NC(N)=S)c1nnn(-c2ccc(C(=O)O)cc2)c1C | 1.65 | 11.6 | > 100 | > 100 | – | 480 | 46.6 | – | inactive | > 100 | – | inactive
C/C(=N\NC(N)=O)c1nnn(-c2ccc(S(=O)(=O)Nc3nccs3)cc2)c1C | 6.52 | 7.9 | > 100 | 46.3 | 6.86 | – | – | – | – | > 100 | – | –
CC(=O)c1nnn(-c2ccc(Cl)cc2)c1C | 3.65 | 7.9 | – | – | – | – | – | – | – | – | – | –
O=c1c(O)c(-c2ccc(O)c(O)c2)oc2cc(O)cc(O)c12 [QUERCETIN] | 3.34 | – | – | – | – | – | – | – | – | – | – | –
C/C(=N\NC(N)=S)c1nnn(-c2ccc(S(=O)(=O)Nc3nccs3)cc2)c1C | 1.69 | 10.3 | > 100 | > 100 | – | 458 | 20.7 | 22.1 | – | > 100 | 11.3 | –
